As usually defined, the inhibition is the change of the read-out against control, counted positive when it falls.

Drawing on article PMC11576395 (iScience, 2024), this text covers inhibition for two compounds.

Read-outs that look alike come from different tables or passages of the source.

Common to all, as to test: thioflavin T aggregation assay of recombinant protein, […] compound
What all share (type): biochemical
Details in all cases: read-out: % inhibition at 50 μM

For assay [1], the target named is T1, α-synuclein (Homo sapiens, UniProt P37840).
Assay [2] addresses T1, α-synuclein. The source holds these as a separate data set.
For assay [3], the target named is T2, AIMP2 (aminoacyl-tRNA synthetase interacting multifunctional protein-2) (Homo sapiens, UniProt Q13155).
T2 sequence (Q13155 1-320): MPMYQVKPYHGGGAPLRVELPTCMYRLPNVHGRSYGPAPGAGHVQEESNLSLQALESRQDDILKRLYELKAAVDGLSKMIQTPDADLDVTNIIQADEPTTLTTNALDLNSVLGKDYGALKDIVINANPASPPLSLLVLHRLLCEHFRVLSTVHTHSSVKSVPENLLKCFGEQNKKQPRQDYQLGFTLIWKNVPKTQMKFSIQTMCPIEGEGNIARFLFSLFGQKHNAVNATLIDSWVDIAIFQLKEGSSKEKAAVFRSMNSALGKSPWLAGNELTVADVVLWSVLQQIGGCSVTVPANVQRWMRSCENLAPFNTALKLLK

On to `C[C@]12CC[C@H]3[C@@H](CCC4=CC(=O)CC[C@@H]43)[C@@H]1CC[C@@H]2O` [Nandrolone], for which, at α-synuclein [1], the inhibition at 50 µM was around 39.9%.
Regarding `CC(C)COc1ccc2c(c1)CC[C@@H]1[C@@H]2CC[C@]2(C)[C@H](O)CC[C@@H]12` [SG13-136, (8R,9S,13S,14S,17R)-3-isobutoxy-13-methyl-7,8,9,11,12,13,14,15,16,17-decahydro-6H-cyclopenta[a]phenanthren-17-ol], the inhibition at 50 µM came to 36.7% at α-synuclein [2] and 56.2% in assay [3].
